Reference: patent publication US5380713A, “Peptide aldehydes as antithrombotic agents” (Bristol-Myers Squibb Company, priority 1994, dated 1995)
Non-standard residues stand in square brackets, D forms with d. Residues, ends and D or L forms follow the SMILES beside them. *: point of attachment. Hydrocinnamoyl = O=C(CCc1ccccc1)*; PhAc = O=C(Cc1ccccc1)*; Bz = O=C(c1ccccc1)*

Legend:
[1] = target: T1, human thrombin (Homo sapiens, UniProt P00734); experiment: Thrombin clotting time in pooled human plasma, initial effect before incubation; format: biochemical; details: 3.3 U/ml human thrombin, 37° C.
T1 construct: 10U/ml human thrombin
Description: Clotting times were measured optically using the Medical Laboratory Automation Electra 700 (MLA 700). Test cuvettes contained 0.1 ml of pre-warmed Owren's buffer, 0.1 ml of the human plasma and 1.2 and 3.0 μl of the test compounds dissolved in water. The cuvette was then vortex mixed and placed on the MLA 700 sample wheel. Clotting time was determined at 37° C. after the addition of 0.1 ml of 10U/ml human thrombin (final concentration=3.3 U/ml).

[2] = test system: thrombin clotting time; experiment: Ex vivo clotting time prolongation after oral dosing of rats; format: in vivo, rat; details: rats dosed orally (p.o.), three per group; clotting time measured ex vivo
Description: Human citrated plasma obtained from human volunteers or citrated plasma obtained from dosed animals (prepared as described below). 25 NIH Units/ml human α-thrombin in thrombin buffer for use with rat plasma. 10 NIH Units/ml human α-thrombin in thrombin buffer for use with human plasma. Dosing: Test compound was prepared just prior to dosing. Routinely the drugs are dissolved in water. Occasionally other vehicles are used, such as PEQ-200 stock solutions are vortex mixed and animals are dosed p.o. using a 3 ml syringe with an 18-19 gauge oral gavage needle or i.p. injection. Blood Drawing for Rats: After the appropriate time period, the animals were ether-anesthetized, and blood was drawn by cardiac puncture using 333 μl of 3.8% sodium citrate per 3 ml blood. […] Clotting times were determined by pipetting 0.1 ml of Owren's buffer (pre-warmed to 37° C.) and 0.1 ml of human or rat plasma into yellow sample cuvettes. For studies with human plasma 10 U/ml human thrombin (10 ml) was placed in the reservoir assembly station of the MLA 700. (Medical Laboratory Automation, Electra 700 Reservoir Assembly). For rat studies, the human thrombin concentration was 25 U/ml. The cuvettes were vortexed and then placed on the MLA 700 sample wheel. The coagulation timer (MLA 700) automatically dispenses 0.1 ml human thrombin into the sample in each cuvette. Detection of the fibrin clot was determined optically by the MLA 700. In separate studies, compounds were dosed orally (p.o.) to three rats in each study group. […] Consequently, they are useful in controlling blood coagulation in mammals including humans.

[3] = Clotting time after incubation of compound in water at 40° C. (stability); format: physicochemical; details: 50 μM stock in deionized water, 0.25-24 hours, FIG. 1
Description: CLOTTING TIME AFTER INCUBATION OF COMPOUND IN WATER AT 40° C.
Fresh blood was drawn from two human donors into vacutainer tubes containing buffered sodium citrate (16 mg sodium citrate and 2.1 mg citric acid per 4.5 ml of blood). The tubes were centrifugated immediately at 1920×g for 15 minutes to obtain fresh platelet poor plasma. The plasma was pooled and 10 ml aliquots were divided into three test tubes. Two tubes were frozen and maintained at -20° C. for future use and one tube was kept on ice throughout testing.
The compound of Example 14 and D-Phe-Pro-Arg aldehyde: H2 SO4 were prepared as stock solutions (50 μM) in deionized water. […] After the initial effect of these compounds on clotting time was determined, the compounds were placed in a 40° C. water bath for various time intervals (from 0.25-24 hours) and aliquots were withdrawn to determine the effect of the incubation on clotting time.
Clotting times were measured optically using the Medical Laboratory Automation Electra 700 (MLA 700). Test cuvettes contained 0.1 ml of pre-warmed Owren's buffer, 0.1 ml of the human plasma and 1.2 and 3.0 μl of the test compounds dissolved in water. […] Clotting time was determined at 37° C. after the addition of 0.1 ml of 10U/ml human thrombin (final concentration=3.3 U/ml).
The stability of the compounds of the present invention were measured or described in the biological procedures. […]

Compound | final concentration which initially caused prolongation of clotting time to approximately three times control value [1] [µM] | DTT [2] | stability in water (effect of incubation on clotting time) [3]
N=C(N)NCCC[C@@H](C=O)NC(=O)[C@@H]1CCCN1C(=O)[C@H](N)Cc1ccccc1 [D-Phe-Pro-Arg aldehyde, D-Phe-Pro-Arg aldehyde: H2 SO4, reference compound] | 0.5 |  | 
Cl.Cl.N=C(N)NCCC[C@@H](C=O)NC(=O)[C@@H]1CCCN1C(=O)CCc1cccnc1 [Example 8, N^α [N-(3-(3-Pyridyl)propanoyl)-L-Prolyl]-L-arginine aldehyde Dihydrochloride] |  | ~ 100 mg/kg | 
Cl.N=C(N)NCCC[C@@H](C=O)NC(=O)[C@@H]1CCCN1C(=O)c1ccccc1 [Example 9, Nα-[N-Benzoyl-L-prolyl]-L-arginine aldehyde Hydrochloride] (Bz-Pro-Arg-aldehyde) |  | 150 mg/kg | 
Cl.N=C(N)NCCC[C@@H](C=O)NC(=O)[C@@H]1CCCN1C(=O)Cc1ccccc1 [Example 12, N^α -[N-Phenylacetyl-L-prolyl]-L-arginine aldehyde Hydrochloride] (PhAc-Pro-Arg-aldehyde) |  | 100 mg/kg | 
Cl.N=C(N)NCCC[C@@H](C=O)NC(=O)[C@@H]1CCCN1C(=O)CCC1CCCCC1 [Example 13, N^α -[N-(3-Cyclohexylpropanoyl)-L-prolyl]-L-arginine aldehyde Hydrochloride] |  | 100 mg/kg | 
Cl.N=C(N)NCCC[C@@H](C=O)NC(=O)[C@@H]1CCCN1C(=O)CCc1ccccc1 [Example 14, N^α -[N-(3-Phenylpropanoyl)-L-prolyl]-L-arginine aldehyde Hydrochloride] (Hydrocinnamoyl-Pro-Arg-aldehyde) | 0.2 | 60 mg/kg | more stable than the corresponding D-phe compound
Cl.Cl.N=C(N)NCCC[C@@H](C=O)NC(=O)[C@@H]1CCCN1C(=O)[C@@H](Cc1ccccc1)NC(=O)CN [Example 16, N^α -[Glycl-D-phenylalanyl-L-prolyl]-L-arginine aldehyde Dihydrochloride] (H-G[dF]PR-aldehyde) |  | 50 mg/kg | 
C[C@H](NC(=O)[C@H](N)Cc1ccccc1)C(=O)N[C@H](C=O)CCCNC(=N)N.O=S(=O)(O)O [Example 19, N^α -[D-Phenylalanyl-L-alanyl]-L-arginine aldehyde Sulfate] (H-[dF]-Ala-Arg-aldehyde) |  | 110 mg/kg | 
